Tests used:
human DGKζ = target: T1, human DGKζ (Homo sapiens, UniProt Q13574); assay: DGKζ LIPGLO assay (extruded liposome substrate), in vitro DGK inhibition; assay type: biochemical; conditions: liposome (LIPGLO) assay; read-out: DGKz LIPGLO IC50
T1 construct: TVMV protease cleavage site (C); Hexa-His (C); made in house; host or cells: Sf9 insect cells (baculovirus, Bac-to-Bac)

human DGKα = target: T2, human DGKα (Homo sapiens, UniProt P23743); assay: DGKα LIPGLO assay (extruded liposome substrate), in vitro DGK inhibition; assay type: biochemical; conditions: liposome (LIPGLO) assay; read-out: DGKa LIPGLO IC50
T2 construct: TVMV protease cleavage site (C); Hexa-His (C); made in house; host or cells: Sf9 insect cells (baculovirus, Bac-to-Bac)
T2 sequence (P23743 with tags, fused parts or gaps): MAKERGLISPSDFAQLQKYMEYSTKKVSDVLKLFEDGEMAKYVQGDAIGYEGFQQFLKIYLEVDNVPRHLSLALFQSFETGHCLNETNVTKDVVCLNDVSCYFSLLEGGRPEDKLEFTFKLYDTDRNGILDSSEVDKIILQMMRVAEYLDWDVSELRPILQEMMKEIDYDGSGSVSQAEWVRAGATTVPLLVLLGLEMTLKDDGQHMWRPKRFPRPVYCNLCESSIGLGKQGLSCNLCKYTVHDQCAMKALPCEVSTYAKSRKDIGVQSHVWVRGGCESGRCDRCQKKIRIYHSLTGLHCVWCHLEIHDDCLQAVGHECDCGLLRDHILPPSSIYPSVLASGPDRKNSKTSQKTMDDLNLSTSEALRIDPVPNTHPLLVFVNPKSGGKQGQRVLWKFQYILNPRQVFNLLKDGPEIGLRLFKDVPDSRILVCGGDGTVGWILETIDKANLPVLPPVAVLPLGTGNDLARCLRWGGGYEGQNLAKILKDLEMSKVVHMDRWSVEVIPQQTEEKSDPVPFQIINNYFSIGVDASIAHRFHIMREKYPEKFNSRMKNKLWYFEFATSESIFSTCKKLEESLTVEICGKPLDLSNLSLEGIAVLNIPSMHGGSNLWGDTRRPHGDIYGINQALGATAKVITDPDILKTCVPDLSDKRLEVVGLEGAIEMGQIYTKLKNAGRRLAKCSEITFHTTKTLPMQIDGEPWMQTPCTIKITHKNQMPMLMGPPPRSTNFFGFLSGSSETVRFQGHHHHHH

T1 sequence (Q13574 with tags, fused parts or gaps isoform Q13574-4): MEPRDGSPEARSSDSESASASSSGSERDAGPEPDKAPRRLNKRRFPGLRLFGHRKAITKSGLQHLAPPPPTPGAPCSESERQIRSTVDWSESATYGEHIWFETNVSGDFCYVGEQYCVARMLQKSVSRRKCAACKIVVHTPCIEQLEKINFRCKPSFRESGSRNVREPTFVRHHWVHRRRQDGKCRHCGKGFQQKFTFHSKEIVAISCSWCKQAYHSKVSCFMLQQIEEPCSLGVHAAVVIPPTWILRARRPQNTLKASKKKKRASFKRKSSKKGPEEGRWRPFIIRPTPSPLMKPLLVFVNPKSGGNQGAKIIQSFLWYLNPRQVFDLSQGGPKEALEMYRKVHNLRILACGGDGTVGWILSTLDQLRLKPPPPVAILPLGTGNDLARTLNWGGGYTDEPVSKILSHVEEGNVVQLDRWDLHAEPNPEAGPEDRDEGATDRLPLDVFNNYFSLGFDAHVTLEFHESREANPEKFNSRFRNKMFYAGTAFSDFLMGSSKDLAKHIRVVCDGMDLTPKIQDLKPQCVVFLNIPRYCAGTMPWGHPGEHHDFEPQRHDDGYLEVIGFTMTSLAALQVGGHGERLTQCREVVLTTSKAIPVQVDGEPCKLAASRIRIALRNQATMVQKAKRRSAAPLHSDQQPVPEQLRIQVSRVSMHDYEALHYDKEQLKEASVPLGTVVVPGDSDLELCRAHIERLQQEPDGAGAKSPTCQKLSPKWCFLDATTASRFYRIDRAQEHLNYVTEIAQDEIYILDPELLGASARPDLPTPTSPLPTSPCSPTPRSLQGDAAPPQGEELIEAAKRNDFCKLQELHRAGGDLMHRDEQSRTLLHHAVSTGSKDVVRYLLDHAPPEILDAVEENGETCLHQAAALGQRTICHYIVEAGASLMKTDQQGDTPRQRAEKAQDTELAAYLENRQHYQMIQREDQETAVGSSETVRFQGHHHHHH

Structure (SMILES)	IC50 (human DGKζ)	IC50 (human DGKα)
CCC(c1cc(Cl)cc2c1OCC2)N1C[C@H](C)N(c2cc(=O)n(C)c3ccc(C#N)nc23)C[C@H]1C (stereo partly drawn) [Example 353, 8-((2S,5R)-4-(1-(5-chloro-2,3-dihydrobenzofuran-7-yl)propyl)-2,5-dimethylpiperazin-1-yl)-5-methyl-6-oxo-5,6-dihydro-1,5-naphthyridine-2-carbonitrile]	1.4 µM	72 µM
C[C@@H]1CN(c2cc(=O)n(C)c3ccc(C#N)nc23)[C@@H](C)CN1C(c1ccc(OC(F)(F)F)cc1)c1ccccn1 (stereo partly drawn) [Example 377, 8-((2S,5R)-2,5-dimethyl-4-(pyridin-2-yl(4-(trifluoromethoxy)phenyl)methyl)piperazin-1-yl)-5-methyl-6-oxo-5,6-dihydro-1,5-naphthyridine-2-carbonitrile]	3.9 µM	0.31 µM
C[C@@H]1CN(c2cc(=O)n(C)c3ccc(C#N)nc23)[C@@H](C)CN1C(c1cccc(F)c1)c1ccccn1 (stereo partly drawn) [Example 404, 8-((2S,5R)-4-((3-fluorophenyl)(pyridin-2-yl)methyl)-2,5-dimethylpiperazin-1-yl)-5-methyl-6-oxo-5,6-dihydro-1,5-naphthyridine-2-carbonitrile]	4.1 µM	0.36 µM
C[C@@H]1CN(c2cc(=O)n(C)c3ccc(C#N)nc23)[C@@H](C)CN1C(c1ccc(OC(F)(F)F)cc1)c1ccccn1 (stereo partly drawn) [Example 405, 8-((2S,5R)-2,5-dimethyl-4-(pyridin-2-yl(4-(trifluoromethoxy)phenyl)methyl)piperazin-1-yl)-5-methyl-6-oxo-5,6-dihydro-1,5-naphthyridine-2-carbonitrile]	4 µM	0.46 µM
C[C@@H]1CN(c2cc(=O)n(C)c3ccc(C#N)nc23)[C@@H](C)CN1C(c1ccc(OC(F)(F)F)cc1F)C1CC1 (stereo partly drawn) [Example 481, 8-((2S,5R)-4-(cyclopropyl(2-fluoro-4-(trifluoromethoxy)phenyl)methyl)-2,5-dimethylpiperazin-1-yl)-5-methyl-6-oxo-5,6-dihydro-1,5-naphthyridine-2-carbonitrile]	1.8 µM	1.4 µM
CC(c1cc(F)c(F)cc1Cl)N1C[C@H](C)N(c2cc(=O)n(C)c3ccc(C#N)nc23)C[C@H]1C (stereo partly drawn) [Example 486, 8-((2S,5R)-4-(1-(2-chloro-4,5-difluorophenyl)ethyl)-2,5-dimethylpiperazin-1-yl)-5-methyl-6-oxo-5,6-dihydro-1,5-naphthyridine-2-carbonitrile]	14 µM	27 µM
C[C@@H]1CN(c2c(C(F)F)c(=O)n(C)c3ccc(C#N)nc23)[C@@H](C)CN1Cc1ccc(OC(F)(F)F)cc1F [Example 570]	> 250 µM	> 250 µM
C[C@@H]1CN(c2cc(=O)n(C)c3ccc(C#N)nc23)[C@@H](C)CN1Cc1cccc(N(C)C)c1 [Example 573]	0.64 µM	4.3 µM
C[C@@H]1CN(c2cc(=O)n(C)c3ccc(C#N)nc23)[C@@H](C)CN1Cc1ccc(OC(F)F)cc1 [Example 588]	7.4 µM	0.091 µM
CC(C)Oc1cccc(CN2C[C@H](C)N(c3cc(=O)n(C)c4ccc(C#N)nc34)C[C@H]2C)c1 [Example 594]	1.4 µM	7 µM
CC(C)Oc1ccccc1CN1C[C@H](C)N(c2cc(=O)n(C)c3ccc(C#N)nc23)C[C@H]1C [Example 595]	4.7 µM	0.39 µM
CC(C)Oc1cc(F)ccc1CN1C[C@H](C)N(c2cc(=O)n(C)c3ccc(C#N)nc23)C[C@H]1C [Example 598]	1.8 µM	0.34 µM
CCOc1cccc(CN2C[C@H](C)N(c3cc(=O)n(C)c4ccc(C#N)nc34)C[C@H]2C)c1 [Example 599]	1.9 µM	3.1 µM
Cc1cc(OC(F)(F)F)ccc1CN1C[C@H](C)N(c2cc(=O)n(C)c3ccc(C#N)nc23)C[C@H]1C [Example 608]	9.2 µM	1.6 µM
C[C@@H]1CN(c2cc(=O)n(C)c3ccc(C#N)nc23)[C@@H](C)CN1Cc1cccc2c1OCCN2C(=O)OC(C)(C)C [Example 630]	13 µM	0.39 µM

Next, values leading:

IC50 (human DGKζ)	IC50 (human DGKα)	Structure (SMILES)
240 µM	3.6 µM	CC(C)[C@H]1CN(c2c(C#N)c(=O)n(C)c3ccc(Br)nc23)CCN1C(c1ccc(F)cc1)c1ccc(F)cc1 [Example 11, (S)-4-(4-(bis(4-fluorophenyl)methyl)-3-isopropylpiperazin-1-yl)-6-bromo-1-methyl-2-oxo-1,2-dihydro-1,5-naphthyridine-3-carbonitrile]
150 µM	24 µM	Cn1c(=O)c(C#N)c(N2CCN(C(c3ccc(F)cc3)c3ccc(F)cc3)C(C(=O)O)C2)c2nc(Br)ccc21 (stereo not drawn) [Example 52, 1-(bis(4-fluorophenyl)methyl)-4-(6-bromo-3-cyano-1-methyl-2-oxo-1,2-dihydro-1,5-naphthyridin-4-yl)piperazine-2-carboxylic acid]
8.3 µM	2.9 µM	C[C@@H]1CN(c2c(C#N)c(=O)n(C)c3ccc(Br)nc23)CCN1C(c1ccc(Cl)cc1)c1ccc(Cl)cc1 [Example 102, (R)-4-(4-(bis(4-chlorophenyl)methyl)-3-methylpiperazin-1-yl)-6-bromo-1-methyl-2-oxo-1,2-dihydro-1,5-naphthyridine-3-carbonitrile]
240 µM	36 µM	CC(C)[C@H]1CN(C(c2ccc(F)cc2)c2ccc(F)cc2)[C@@H](C)CN1c1cc(=O)n(C)c2ccc(C#N)nc12 [Example 125, 8-((2S,5S)-4-(bis(4-fluorophenyl)methyl)-2-isopropyl-5-methylpiperazin-1-yl)-5-methyl-6-oxo-5,6-dihydro-1,5-naphthyridine-2-carbonitrile]
23 µM	9 µM	Cn1c(=O)cc(N2CCN(C(c3ccc(F)cc3)c3ccc(F)cc3)CC2C#N)c2nc(C#N)ccc21 (stereo not drawn) [Example 145, 8-(4-(bis(4-fluorophenyl)methyl)-2-cyanopiperazin-1-yl)-5-methyl-6-oxo-5,6-dihydro-1,5-naphthyridine-2-carbonitrile]
2.4 µM	1.9 µM	COC(=O)C1CN(C(c2ccc(F)cc2)c2ccc(F)cc2)CCN1c1c(Br)c(=O)n(C)c2ccc(C#N)nc12 (stereo not drawn) [Example 162, Methyl 4-(bis(4-fluorophenyl)methyl)-1-(3-bromo-6-cyano-1-methyl-2-oxo-1,2-dihydro-1,5-naphthyridin-4-yl)piperazine-2-carboxylate]
31 µM	8.5 µM	Cc1ncc(C(c2ccc(Cl)cc2)N2CCN(c3c(C#N)c(=O)n(C)c4ccc(C#N)nc34)C[C@H]2C)cn1 (stereo partly drawn) [Example 314, 8-((3R)-4-((4-chlorophenyl)(2-methylpyrimidin-5-yl)methyl)-3-methylpiperazin-1-yl)-5-methyl-6-oxo-5,6-dihydro-1,5-naphthyridine-2,7-dicarbonitrile]
1.8 µM	4.1 µM	Cc1nccc(C(c2ccc(F)cc2)N2CCN(c3c(C#N)c(=O)n(C)c4ccc(C#N)nc34)C[C@H]2C)n1 (stereo partly drawn) [Example 315, 8-((3R)-4-((4-fluorophenyl)(2-methylpyrimidin-4-yl)methyl)-3-methylpiperazin-1-yl)-5-methyl-6-oxo-5,6-dihydro-1,5-naphthyridine-2,7-dicarbonitrile]
0.93 µM	2.4 µM	Cc1nccc(C(c2ccc(F)cc2)N2CCN(c3c(C#N)c(=O)n(C)c4ccc(C#N)nc34)C[C@H]2C)n1 (stereo partly drawn) [Example 316, 8-((3R)-4-((4-fluorophenyl)(2-methylpyrimidin-4-yl)methyl)-3-methylpiperazin-1-yl)-5-methyl-6-oxo-5,6-dihydro-1,5-naphthyridine-2,7-dicarbonitrile]
13 µM	3.8 µM	C[C@@H]1CN(c2c(C#N)c(=O)n(C)c3ccc(C#N)nc23)CCN1C(c1ccc(F)cc1)c1cncnc1 (stereo partly drawn) [Example 317, 8-((3R)-4-((4-fluorophenyl)(pyrimidin-5-yl)methyl)-3-methylpiperazin-1-yl)-5-methyl-6-oxo-5,6-dihydro-1,5-naphthyridine-2,7-dicarbonitrile]
0.76 µM	1.1 µM	C[C@@H]1CN(c2cc(=O)n(C)c3ccc(C#N)nc23)[C@@H](C)CN1C(c1cccc(F)c1)c1ccc(C(F)(F)F)cn1 (stereo partly drawn) [Example 370, 8-((2S,5R)-4-((3-fluorophenyl)(5-(trifluoromethyl)pyridin-2-yl)methyl)-2,5-dimethylpiperazin-1-yl)-5-methyl-6-oxo-5,6-dihydro-1,5-naphthyridine-2-carbonitrile]
6.3 µM	3.3 µM	Cc1ncc(C(c2ccc(Cl)cc2)N2C[C@H](C)N(c3cc(=O)n(C)c4ccc(C#N)nc34)C[C@H]2C)cn1 (stereo partly drawn) [Example 385, 8-((2S,5R)-4-((4-chlorophenyl) (2-methylpyrimidin-5-yl)methyl)-2,5-dimethylpiperazin-1-yl)-5-methyl-6-oxo-5,6-dihydro-1,5-naphthyridine-2-carbonitrile]
3.2 µM	4.2 µM	C[C@@H]1CN(c2cc(=O)n(C)c3ccc(C#N)nc23)[C@@H](C)CN1C(c1ccc(F)cc1)c1cncc(F)c1 (stereo partly drawn) [Example 400, 8-((2S,5R)-4-((4-fluorophenyl)(5-fluoropyridin-3-yl)methyl)-2,5-dimethylpiperazin-1-yl)-5-methyl-6-oxo-5,6-dihydro-1,5-naphthyridine-2-carbonitrile]
1.7 µM	0.28 µM	C[C@@H]1CN(c2cc(=O)n(C)c3ccc(C#N)nc23)[C@@H](C)CN1C(c1ccc(C#N)cc1)c1ccc(F)cn1 (stereo partly drawn) [Example 464, 8-((2S,5R)-4-((4-cyanophenyl)(5-fluoropyridin-2-yl)methyl)-2,5-dimethylpiperazin-1-yl)-5-methyl-6-oxo-5,6-dihydro-1,5-naphthyridine-2-carbonitrile]
10 µM	7.1 µM	COC(CN1C[C@H](C)N(c2cc(=O)n(C)c3ccc(C#N)nc23)C[C@H]1C)c1ccc(F)cc1 (stereo partly drawn) [Example 561, 8-((2S,5R)-4-(2-(4-fluorophenyl)-2-methoxyethyl)-2,5-dimethylpiperazin-1-yl)-5-methyl-6-oxo-5,6-dihydro-1,5-naphthyridine-2-carbonitrile]

From patent US10669272B2, “Substituted naphthyridinone compounds useful as T cell activators” (BRISTOL-MYERS SQUIBB COMPANY, priority 2018, dated 2020)
